From patent US20150038435A1, “N-TERMINALLY MODIFIED OLIGOPEPTIDES AND USES THEREOF” (Novo Nordisk A/S, priority 2012, published 2015)
Non-standard residues stand in square brackets, D forms with d. Residues, ends and D or L forms follow the SMILES beside them. *: point of attachment. Lauroyl = CCCCCCCCCCCC(=O)*

Tests used:
[1] = Hydrophobicity: retention time during reverse phase HPLC; type: physicochemical; conditions: Acquity CSH C18; pH 7.2 buffer/CH3CN gradient; 40° C.
Excerpt: The retention time (RT) during reverse phase HPLC was taken as a measure of hydrophobicity of an N-terminally modified peptide or oligopeptide of the invention, where the connection is: The longer the RT, the more hydrophobic N-terminally modified peptide or oligopeptide. The following running conditions were applied during HPLC analysis:
Buffer B: 70% (v/v) aq. CH3CN

[2] = Stability of N-terminally acylated peptides or oligopeptides in GI juice; type: in vitro ADME; conditions: degradation of the compound itself in jejunum extract from rat, read-out: t 1/2 in rat GI juice
Description: 96 well plates were coated by incubating with 0.4% Bovine serum albumin (BSA) solution for minimum of 60 min. To each well, 210 μl of buffer (Hank's balanced salt solution-4-(2-hydroxyethyl)-1-piperazineethanesulfonic acid (HBSS-HEPES) buffer) with 0.005% Tween 20 and 0.001% BSA, pH 6.5 precipitated with 3 vol. cold 96% ethanol (EtOH) w. 1% TFA), 30 μl of a substrate (100 μM insulin analogue or GLP-1 analogue in buffer) and 30 μl of N-terminally acylated peptide or oligopeptide of the invention (10 mM) were added. The plates were pre-incubated (before adding GI juice) for 60 min at 37° C. After addition of 30 μl of GI juice (10-times diluted in buffer), the plates were incubated for 60 min/37° C. on shaker. Samples (40 μl) were taken at 0, 5, 10, 20, 30 and 60 min, stopped with 3 vol. cold 96% EtOH w. 1% TFA and spun down in plates (4500 rpm for 10 min). Samples were diluted 5 times with the buffer prior to LC-MS analysis. Standard samples (0.1, 0.5, 1.0, 5.0, 10.0 μM) were prepared and treated as the samples. Standard curve was analysed both at the beginning and the end of the sequence. Two replicates of each tested conditions were included. Ion suppression was assessed by analyzing a standard at 1 μM and at 10 μM with 1 mM inhibitor present. Intact insulin or GLP-1 analoues were determined at each sample. The results were plotted against the incubation time. Half-lives of the insulin or GLP-1 analogues were determined by nonlinear regression of the results using, for example Graph Pad Prism. The half-lives were expressed relative to the half-live of the insulin or GLP-1 analogue without inhibitor present by dividing the half-lives obtained in the presence of inhibitor with those obtained in the absence of inhibitors. GI juice was prepared from male Sprague Dawley rats (200-250 g) by excising approximately 20 cm piece of mid jejunum and rinsing the inside with 2.5 ml 0.9% sodium chloride solution. The sodium chloride solution was collected in a centrifuge tube, pooled from all rats (20) and centrifuged at 4500 rpm./10 min/4° C. The supernatant was aliquoted in tubes and stored at −80° C.
Degradation of the N-terminally fatty acid modified peptide or oligopeptide of the invention themselves in jejunum extract from rat (GI juice) and determination of half-lives, was measured as described above (example 200).

Trypsin = test: Inhibition of enzymatic degradation of a model GLP-1 (FRET substrate) by trypsin; type: biochemical; conditions: for Slope of the initial increase in fluorescence obtained during incubation with 0.001 mg/ml Trypsin: compound 1 mM; for EC50: read-out: EC50 Trypsin (0.001 mg/ml), 0.001 mg/ml trypsin, 37° C.
Summary of the method: (§1)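 Initial-rate slopes of fluorescence rise (320 nm ex, 405 nm em), fitted over the linear early phase and averaged from duplicates, were plotted against inhibitor concentration and fitted logistically to give EC50. Reactions ran at 37° C in Dulbecco's PBS, with MCA/DNP GLP-1 FRET substrate added as 10 μl of 100 μM stock.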

Chymotrypsin = test: Inhibition of enzymatic degradation of a model GLP-1 (FRET substrate) by chymotrypsin; type: biochemical; conditions: for Slope of the initial increase in fluorescence obtained during incubation with 0.001 mg/ml Chymotrypsin: compound 1 mM; for EC50: read-out: EC50 Chymotrypsin (0.001 mg/ml), 0.001 mg/ml chymotrypsin, 37° C., ± standard error if at least 3 measurements
Summary of the method: as §1

## CCCCCCCCCCCC(=O)N[C@H](C)C(=O)N[C@H](C)C(=O)N1CCC[C@@H]1C(=O)N[C@H](Cc1ccccc1)C(=O)O [Example 1, N-dodecanoyl-DAla-DAla-DPro-DPhe-OH] (Lauroyl-[dA][dA][dP][dF]-OH)
[1]
  RT (retention time during reverse phase HPLC as a measure of hydrophobicity): 6.91 min
[2]; male, Sprague Dawley, rat GI juice (jejunum extract), pH 6.5
  half-life at 1 mM: > 1000 min
Trypsin
  Slope of the initial increase in fluorescence obtained during incubation with 0.001 mg/ml Trypsin: 0.39
  EC50: > 500 µM
Chymotrypsin
  Slope of the initial increase in fluorescence obtained during incubation with 0.001 mg/ml Chymotrypsin: 0.41
  EC50: 476 µM

## CCCCCCCCCCCC(=O)N[C@@H](C)C(=O)N[C@@H](C)C(=O)N1CCC[C@H]1C(=O)N[C@@H](Cc1ccccc1)C(=O)O [Example 34, N-dodecanoyl-Ala-Ala-Pro-Phe-OH] (Lauroyl-AAPF-OH)
[1]
  RT (retention time during reverse phase HPLC as a measure of hydrophobicity): 6.94 min
[2]; GI juice (jejunum extract)
  half-life: 3.5 min
Trypsin
  Slope of the initial increase in fluorescence obtained during incubation with 0.001 mg/ml Trypsin: 0.31
  EC50: 317 µM
Chymotrypsin
  Slope of the initial increase in fluorescence obtained during incubation with 0.001 mg/ml Chymotrypsin: 0.07
  EC50: 200 ± 26 µM
